Earlier results, collected in US8450339B2, “Compositions for treatment of common cold” (Takeda Pharma A/S, priority 2001, dated 2013).
Counter-ions that a name gives are not always drawn.

What was measured:
[1] = aqueous solution
[2] = following administration

SMILES | Stability optimum, pH [1] | Mean duration of effect [2]
Cc1cc(C(C)(C)C)cc(C)c1CC1=NCCN1 [xylometazoline hydrochloride] | 2 | 
CC(C)[N+]1(C)[C@@H]2CC[C@H]1CC(OC(=O)C(CO)c1ccccc1)C2.[Br-] (some centres unmarked) [ipratropium bromide] |  | 6 h
